Each structure is given as a SMILES string.

Data set [1] concerns J774.A1 cell lines (macrophages). Nature of the data set: Cytotoxicity against J774.A1 macrophages, MTT assay. It counts as cell-based, murine (BALB/c). The note with it: Mus musculus, J774.A1, 48 h, read-out: IC50 (concentration required to give 50% death of cells). How it is done: Initially the cytotoxic profile of compounds 9a–e and 10a–e against J774.A1 cell lines (i.e., BALB/c macrophage cell lines) was investigated. Therefore, these cells were exposed to different concentrations (0.1–100 μM) of compounds 9a–e and 10a–e and the cytotoxic effect was measured after 48 h of drug incubation, by using MTT-based assay. The cytotoxicity was expressed as IC50 values (that means the concentration of a drug that kills half of the tested cells in culture). As depicted in Table 1, most compounds have shown low cytotoxic activity with IC50 > 100 μM.
These adherent-phenotype macrophage lines were cultured in Dulbecco's Modified Eagle's medium (DMEM, Sigma) supplemented with 10% FBS at 37 °C with 95% humidity and 5% CO2.
To evaluate the cytotoxic activity against the J774.A1 cell line, the host cells were plated in 96-well cell culture plate (flat bottom, clear, Corning) at 2 × 10^5 cells per well in complete culture medium 10% FBS at 37 °C. After 1 h wells were washed with warm Hank's Balanced Salt solution (HBSS) to remove non-adherent cells, leaving approximately 10^5 adherent macrophages. All cultures were done in DMEM complete supplemented with 10% FBS. The compounds and pentamidine were added at serial concentrations (0.1–100 μM). The cells were also cultured with medium free from compounds or vehicle (basal growth control) or in media with DMSO 0.1% (vehicle control). Positive control (dead cells) was obtained by cellular lysis with 1% of Triton 100× in DMEM complete (because it is a detergent in this concentration, Triton 100× destabilizes the cell membrane of macrophages, causing cell death). The cytotoxicity was evaluated by the MTT assay.[31] This assay consists of indirectly measuring cell viability through the mitochondrial enzymatic activity of macrophages. Viable cells are capable of reducing MTT to formazan. For this, after the incubation of plate for 48 h, 100 μL of MTT solution (0.5 mg mL^−1, in DMEM medium) was added per well, and the plate was incubated for 1 h. Then, the supernatant of each well was retired and was added 150 μL of DMSO. The absorbance was determined at 570 nm in a microplate reader. The cell viability of the cultures treated with the compounds was compared to the death pattern obtained in the control cultures. In the positive control, the cell death was confirmed when the optical density was equal to zero, confirming that the cells were not viable. Data obtained from experiments were expressed as the mean ± standard error of the mean (mean ± S.E.M.) and statistical differences between the treated and the vehicle groups of experiments were evaluated by ANOVA and Dunnett hoc tests.

For another data set, the system named is L. amazonensis. The experiment in a line: Murine model of cutaneous leishmaniasis induced by L. amazonensis (efficacy). The note with it: 30 μmol per kg per day × 28 days. It counts as in vivo, BALB/c mice. How it is done: So, BALB/c mice infected with L. amazonensis were treated during 28 days with compound 10e (30 μmol per kg per day, i.p.) or with the standards miltefosine (30 μmol per kg per day, p.o.) and meglumine antimoniate (30 μmol per kg per day, i.p.).
(§1) This study (protocol number 2013.02) was approved by the Ethics Committee for Animal Experimentation of the Federal University of Alagoas (Brazil). All animals received humane care in compliance with the ‘Principles of laboratory animal care’ formulated by the National Society for Medical Research and the ‘Guide for the care and use of laboratory animals’ prepared by the National Academy of Sciences (Washington, DC). Then, 1 × 10^5 stationary promastigotes (5 days of culture in Schneider's medium) of L. amazonensis were inoculated subcutaneously into the right ear dermis of 6 week-old female BALB/c mice weighing ca. 20 g. and later treated with 10e (i.p.), miltefosine (p.o.) or meglumine antimoniate (i.p.) at 30 μmol kg^−1 × 28 days. The vehicle to solubilize 10e (LASSBio-1736) and standard drugs was Tween 20 (50 μL) and sterile water for injection, which was also administrated by i.p. route in two controls groups (non-infected control and infected control). The lesion size was measured using a paquimeter.[32] The parasite loads of infected ears and draining lymph nodes were determined using a quantitative limiting-dilution assay.[33] Toxicity was also evaluated due to alterations on spleen weight and by biochemistry dosages in plasma, performed according to the manufacturer's instructions (Doles, BRA). Data obtained from experiments were expressed as the mean ± S.E.M. and statistical differences between the treated and the vehicle groups of experiments were evaluated by ANOVA and Dunnett hoc tests.

A short description of data set [2]: Toxicity in treated infected mice (survival, spleen weight, serum biochemistry). It counts as in vivo. The note with it: 30 μmol per kg per day × 28 days. On the procedure: The survival of BALB/c mice infected with L. amazonensis untreated and treated during 28 days with the daily dose of 30 μmol kg^−1 with meglumine antimoniate, miltefosine and 10e (LASSBio-1736) was analyzed. Animal mortality was not observed for the groups treated with 10e and miltefosine, while 20% of death was identified from the 25th day of treatment with meglumine antimoniate (Fig. 11). After the end of treatment, the animal's toxicity was investigated looking for any alterations on spleen weight and on alanine aminotransferase (ALT), aspartate aminotransferase (AST), creatinine (CREA) and urea serum levels.
as §1

The nature of data set [3]: Chemical stability in PBS pH 7.4. It counts as physicochemical. The note with it: PBS pH 7.4, 37 °C, 0 and 240 minutes. On the procedure: To investigate the potential plasma instability of the carbamoyl-N-arylimine-urea subunit, designed as a new peptide mimetic framework, compound 10e (LASSBio-1736) was selected to investigate its plasma stability,[21,22] previously to the evaluation of its in vivo leishmanicidal effect. Quantitation of 10e (LASSBio-1736), benzocaine standard (positive control; it means a substrate drug for plasma hydrolysis) and ketoconazole (internal standard) was determined by UPLC-MS/MS, after incubation of the compounds at 0, 30, 60, 120 and 240 min with rat plasma, and measuring the peak areas in three different experiments. […]
final R1 factor for I >2σ(I ) 0.0594 final wR 2 factor for all data 0.1689 largest diff. peak / hole (e/Å 3) 0.220 and -0.256
Chemical stability pH 7.4
In a 10 mL tube, 5μL (250 ng/mL) of LASSBio-1736 (10e) (stock concentration = 10000 ng/mL solubilized in DMSO) was added in 195μ L of PBS (pH=7.4), and the mixture was placed in a shaker at 37 °C under vigorous stirring for 0 and 240 minutes. […]
The samples were resuspended with 100 μL of a methanol:water mixture (7:3) […] and were placed in 2 mL vials, and analyzed by UPLC-MS. […]

As to `O=C(N/N=C/c1ccc(C(F)(F)F)cc1)NNC(=O)c1ccc(Cl)cc1Cl` [LASSBio-1736 (10e), 2,4-dichloro-phenylcarbamoyl-N-4-trifluoromethylphenylimine-urea], the IC50 in data set [1] was greater than 100 µM. Also, in the data set with L. amazonensis, the “Appearance of lesions on the first day after end of treatment (photographs)” value was “complete healing of the nodules and ulcers”. For the same compound, in the data set with L. amazonensis (10e and meglumine antimoniate i.p., miltefosine p.o.), the “Lesion sizes of infected ear” value is listed as “reduced the lesion sizes of infected ear like miltefosine”. In addition, in the data set with L. amazonensis (limiting-dilution assay), the “L. amazonensis titer in draining lymph node” value is listed as “not reduced the L. amazonensis titer in draining lymph node” and the “Parasite load in infected ear” value is on record as “decreased parasite load in infected ear”. In addition, in data set [2] (after end of treatment, i.p.), the “Serum levels of ALT, AST, creatinine and urea” value is listed as “did not significantly interfere”. Moreover, the Spleen weight result in data set [2] (last day of treatment) is reported as “did not alter animal's spleen weight”. Besides, the “Stability to hydrolysis at PBS (pH 7.4)” value in data set [3] is on record as “stable to hydrolysis”.

The values above are taken from publication PMC9050848, “Carbamoyl-N-aryl-imine-urea: a new framework to obtain a putative leishmanicidal drug-candidate” (RSC Advances, 2020).
